Like-named read-outs stand apart in the source and are kept apart here. Values belong to the compound of their own block, whether it stands above or below them.
Columns and labels:
[1] = Theacrine-caffeine interaction study: single oral dose plasma pharmacokinetics (LC-MS/MS, noncompartmental); type: in vivo, human
Excerpt: Theacrine pharmacokinetics in humans has not been systematically characterized. Therefore, one purpose of this study, among others, was to determine theacrine pharmacokinetics and dose-linearity following oral administration in humans.
Eight healthy nonsmokers, including 4 men and 4 women, were recruited for the experiment.
(§1) Study Design and Procedures. […] Theacrine, administered as iTeaCrine.®, was provided by Compound Solutions (Carlsbad, Calif). […] Treatment sequence was randomized using a 4×4 Latin square. There was an approximate 1-week washout period between treatments for all subjects.
(§2) Test Visit Procedures. […] A catheter was inserted into the forearm vein for blood sampling. Duplicate measurements of resting heart rate and blood pressure were taken pre-dose and prior to each timed blood sample. In addition, respiratory rate was counted in one minute and body temperature was measured using an ear scanning thermometer (dual readings taken at each time).
All subjects were instructed to consume their usual diet throughout the study period, with the exception of the actual days of testing. During the two days prior to each test day, subjects recorded all food and drink consumed and attempted to mimic this intake for the two-day period prior to subsequent visits. Diet records were analyzed using nutrient analysis software (Food Processor SQL, version 9.9; ESHA Research, Salem, Oreg.). For the actual test days, standardized meals (meal replacement food bars [Clif “Builder's 20 g Protein Bar”] and ready-to-drink shakes [Orgain Organic Nutrition™]) were provided to the subjects after sample collection at hour 2 and hour 6 (one shake and one-half bar at each time). Subjects were also provided with adequate meal replacement bars and shakes to consume following the 8 hour sample collection. (during their time outside the lab). Each bar contained 280 calories, 10 grams of fat, 29 grams of carbohydrate, and 20 grams of protein. Each shake contained 250 calories, 7 grams of fat, 32 grams of carbohydrate, and 16 grams of protein. No food other than what was provided to the subjects was allowed during each study day, including both time spent in the lab and outside the lab. […] The subjects returned the following morning for the 24 hour blood collection, again in a 10 hour fasted state. The same volume of meal replacement bars or shakes was consumed by each subject during each visit (both in lab and outside lab).
Pharmacokinetic Study. Plasma concentration-time data were evaluated using noncompartmental methods in Phoenix WinNonlin (version 7.0; Pharsight Corporation, Mountain View, Calif) with adjustment for lag time after oral administration. The maximum concentration (Cmax), lag time (talag), and time of maximum concentration (tmax) were determined from the plasma concentration versus time data. The area under the plasma concentration-time curve from time 0 to infinity (was calculated using the trapezoidal rule extrapolated to time infinity). […] The oral clearance (CL/F) was calculated by dividing the oral dose by AUC0-∞. The apparent volume of distribution during the terminal elimination phase (Vz/F) was calculated by dividing CL/F by k. […]

[2] = Theacrine-caffeine interaction study: heart rate, blood pressure, rate pressure product, tolerability; details: at the doses tested, administered alone or in combination
Excerpt: as §1, §2
Differences between treatment group values were determined for systolic blood pressure (SBP), diastolic blood pressure (DBP), rate pressure product, and heart rate. Parametric data were analyzed by paired Student's t tests of mean differences in values between treatment groups. Statistical significance was defined a priori as a 2-sided or <0.05.

[3] = Single dose theacrine, caffeine or combination: subjective feelings on 10 cm visual analog scale; type: in vivo, human
Description: Subjects rated their subjective feelings using a 10 cm visual analog scale at 30 minutes, 1, 2, 3, 4, and 5 hours post ingestion and performed the trail making test (TMT) of cognitive performance at baseline and at hours 2 and 4 post ingestion.

[4] = Fourteen day study of repetitive dosing of theacrine and caffeine: psychometric indices; type: in vivo, human
[5] = both sexes, human, in vivo, 150 mg
[6] = from baseline to 2 hours post-ingestion

Compound: Cn1c(=O)c2c(ncn2C)n(C)c1=O [Caffeine, caffeine, reference compound]
- MRT [1, 5]: 8.4 ± 4.3 h
- half-life [1, 5]: 6.2 ± 3.8 h
- Vd/F ([1]; both sexes, human, in vivo, 150 mg, Vd/F): 33.5 ± 13.7 L
- dose-adjusted Cmax ([1]; both sexes, human, in vivo, po, 150 mg): 33.4 ± 9.5 ng/mL/mg
- caffeine pharmacokinetics following caffeine alone or caffeine plus theacrine co-ingestion ([1]; caffeine 150 mg vs theacrine 125 mg + caffeine 150 mg): similar
- AUC ([1]; human, in vivo, 150 mg): 262.0 ± 74.1 ng·h/mL/mg
- CL/F ([1]; human, in vivo, 150 mg): 4.1 ± 1.1 L/h
- effect on baseline hemodynamic parameters, e.g. heart rate and blood pressure [2]: no effect
- self-reported motivation to exercise ([3]; caffeine 150 mg, 125 mg theacrine and 150 mg caffeine): significantly increased
- motivation to exercise [3, 6]: significantly increased
- sense of energy [3, 6]: significantly increased
- subjective focus [3, 6]: significant increase
- anxiety [4]: increased anxiety scores
- psychometric indices of energy, focus, concentration, motivation and mood [4]: decreasing levels of energy, focus and concentration by Day 5

- Tmax ([1]; both sexes, human, plasma, oral, 150 mg): 5 h
- dose-adjusted Cmax ([1]; both sexes, human, plasma, oral, 150 mg, paraxanthine in plasma, Condition 3: Caffeine 150 mg, dose-adjusted, mean ± SD): 7.3 ± 1.5 ng/mL/mg
- MRT ([1]; both sexes, human, plasma, oral, 150 mg, read-out: MRT): 19.1 ± 18.6 h
- half-life ([1]; both sexes, human, plasma, oral, 150 mg, read-out: t1/2 (converted)): 12.5 ± 12.7 h
- dose-adjusted Cmax ([1]; both sexes, human, plasma, oral, paraxanthine in plasma, Condition 4: Theacrine 125 mg + Caffeine 150 mg, dose-adjusted, mean ± SD): 8.4 ± 3.5 ng/mL/mg
- AUC ([1]; paraxanthine in plasma, Condition 3: Caffeine 150 mg, dose-adjusted, mean ± SD): 174 ± 152 ng·h/mL/mg
- AUC ([1]; paraxanthine in plasma, Condition 4: Theacrine 125 mg + Caffeine 150 mg, dose-adjusted, mean ± SD): 209 ± 202 ng·h/mL/mg
Compound: Cn1c(=O)[nH]c2ncn(C)c2c1=O [Paraxanthine, paraxanthine]

Source: patent US11925645B2, “Enhanced caffeinated beverage composition” (Ortho-Nutra, LLC, priority 2013, dated 2024)
